Several values for one entry are separate records, joined by “and”; a condition that tells them apart may be missing. Identical values can stand only once. Entries after “also recorded” stand apart in the source; their conditions may differ. Like-named read-outs stand apart in the source and are kept apart here.

The nature of data set [1]: Photostability: light exposure under ICH Q1B conditions, impurities by HPLC. It counts as physicochemical. Here is the method: Uncoated tablets, 0.5, 1 and 2 mg were exposed to ICH Photostability conditions and tested to provide baseline impurity information for comparison.
Data set [2] can be described thus: Toxic effects at high doses (statement). It counts as in vivo. To be noted: when administered in high doses.
Data set [3] can be described thus: Exposure and absorption upon in vivo administration (statement).
A short description of data set [4]: Desolvation during handling and formulation (statement). It counts as physicochemical.
The nature of data set [5]: Solubility (comparative statement). It counts as physicochemical.
A short description of data set [6]: Single-dose (Day 1) pharmacokinetics of Compound tablets, first-time-in-human study. The conditions noted are these: fasting; for AUC(0-t): AUC (0-24); for Tmax: median (range).
From the text: Preliminary PK data was obtained in subjects with solid tumors following single-and repeat-dose oral administration of Compound tablets.
The next data set can be described thus: clinical. To be noted: human, plasma, oral, 2 mg.
For data set [7] the following is noted: female, beagle, dog, in vivo, po. From the text: (§1) The pharmacokinetics, absorption, distribution, metabolism and elimination of N-{3-[3-cyclopropyl-5-(2-fluoro-4-iodo-phenylamino)-6, 8-dimethyl-2,4,7-trioxo-3,4,6,7-tetrahydro-2H-pyrido[4,3-d]pyrimidin-1-yl]phenyl}acetamide and solvates thereof, including the dimethyl sulfoxide solvate (collectively referred to as “Compound” when used in connection with animal models or human clinical trials), were investigated in a series of in vitro investigations and with in vivo oral (gavage) and IV studies in the Balb/c mouse, Sprague Dawley rat (unless otherwise stated), beagle dog and cynomolgus monkey using unlabeled and [14C]-labeled Compound. A list of these studies is included, along with subsequently obtained human clinical results, in Table 1 below. For in vivo studies, various formulations were used. For oral dosing, solutions or suspensions were administered.
(§2) Dose range studies in rats at doses up to 1 mg/kg/day for 14 days and in dogs at doses up to 0.5 mg/kg/day (or 10 mg/m2/day) for 10 days were conducted prior to the studies.
In vivo toxicology studies were conducted in Sprague Dawley rats and beagle dogs by oral gavage (Table 3). Studies were conducted using the DMSO solvate of Compound formulated as a suspension in 1.5% hydroxypropylmethylcellulose, 5% mannitol, and 0.2% sodium lauryl sulfate. For all toxicology studies, doses are expressed based on body surface area (mg/m2). […]

Data set [8] can be described thus: Repeat-dose (Day 15) pharmacokinetics of Compound tablets, first-time-in-human study. To be noted: individual values.
From the text: (§3) Preliminary PK data was obtained in subjects with solid tumors following single-and repeat-dose oral administration of Compound tablets. The dose-escalation part of the first-time-in-human study (FTIH), involved administration of Compound in one of 3 main dosing regimens: • QD dosing with the designated dose for 21 days, followed by 7 days without drug; • Administration of a loading dose (LD) on both Day 1 and Day 2, or on Day 1 only, followed by continuous QD dosing with the designated dose; or • Administration of continuous QD dosing without a loading dose.
(§4) Additional blood samples were taken pre-dose on Day 15 of Cycle 1 and Day 1 of further cycles in Part 2 and Part 3 to assess steady state trough levels of Compound.
Data set [9] in a line: Repeat dose toxicokinetics and toxicology, oral gavage, DMSO solvate of Compound, rat. To be noted: for Cmax End of Study: Sprague Dawley, rat, in vivo, po, 0.25 mg/m2.
From the text: as §1, §2
In vivo toxicology studies were conducted in Sprague Dawley rats and beagle dogs by oral gavage (Table 3). Studies were conducted using the DMSO solvate of Compound formulated as a suspension in 1.5% hydroxypropylmethylcellulose, 5% mannitol, and 0.2% sodium lauryl sulfate. For all toxicology studies, doses are expressed based on body surface area (mg/m2). In general, to convert mg/m2 doses to mg/kg, divide the doses by 8 for rats and 20 for dogs.

[10] abbreviates: single dose Day 1, oral tablets, 0.5 mg, individual values.
Where [11] appears, read: single dose Day 1, oral tablets, 1.0 mg, individual values.

From the text for clinical: as §3, §4

For `CC(=O)Nc1cccc(-n2c(=O)n(C3CC3)c(=O)c3c(Nc4ccc(I)cc4F)n(C)c(=O)c(C)c32)c1` [Compound A, N-{3-[3-cyclopropyl-5-(2-fluoro-4-iodo-phenylamino)-6,8-dimethyl-2,4,7-trioxo-3,4,6,7-tetrahydro-2H-pyrido[4,3-d]pyrimidin-1-yl]phenyl}acetamide dimethyl sulfoxide solvate], the “photo-stability (in words)” value in [1] is “sensitive to photo-induced degradation; also recorded: can suffer from photo-instability”. The toxic effects entry in data set [2] is reported as “can cause toxic effects when administered in high doses”. Also, the exposure and absorption entry in data set [3] is “poor exposure and absorption”. Further, the “desolvation to unsolvated Compound B” value in data set [4] is “can undergo desolvation”.

For `CC(=O)Nc1cccc(-n2c(=O)n(C3CC3)c(=O)c3c(Nc4ccc(I)cc4F)n(C)c(=O)c(C)c32)c1` [Compound B, N-{3-[3-cyclopropyl-5-(2-fluoro-4-iodo-phenylamino)-6,8-dimethyl-2,4,7-trioxo-3,4,6,7-tetrahydro-2H-pyrido[4,3-d]pyrimidin-1-yl]phenyl}acetamide], the “solubility compared with Compound A” value in data set [5] is on record as “much less soluble than Compound A”.

As to `CC(=O)Nc1cccc(-n2c(=O)n(C3CC3)c(=O)c3c(Nc4ccc(I)cc4F)n(C)c(=O)c(C)c32)c1` [Compound, N-{3-[3-cyclopropyl-5-(2-fluoro-4-iodo-phenylamino)-6,8-dimethyl-2,4,7-trioxo-3,4,6,7-tetrahydro-2H-pyrido[4,3-d]pyrimidin-1-yl]phenyl}acetamide], the C24 entry in data set [6] (Day 1, oral tablets, 6.0 mg loading dose, mean (CV %) and range) is “(3.4-11.1) ng/mL”; in data set [6] (Day 1, oral tablets, 8.0 mg loading dose, mean (CV %) and range) it was “(2.98-12.1) ng/mL”; in data set [6] (Day 1, oral tablets, 10.0 mg loading dose, mean (CV %) and range), “(21.0-29.0) ng/mL”; in data set [6] (setting [10]) it was 0 ng/mL and 0.31 ng/mL; in data set [6] (setting [11]) it was 0.38 ng/mL and 0.27 ng/mL; in [6] (single dose Day 1, oral tablets, 2.0 mg, mean (CV %) and range) it was “(1.15-1.93) ng/mL”. Also, the C24 entry in [6] (single dose Day 1, oral tablets, 2.5 mg, mean (CV %) and range) is recorded as “(1.25-3.10) ng/mL”; in [6] (single dose Day 1, oral tablets, 3.0 mg, mean (CV %) and range) it was “(0.75-13.4) ng/mL”; in data set [6] (single dose Day 1, oral tablets, 4.0 mg, mean (CV %) and range) it was “(5.53-14.9) ng/mL”. The highest concentration (Cmax) (commonly the highest concentration seen after dosing) in data set [6] (human, plasma, po, 0.5 mg, Cmax, single dose Day 1, oral tablets, 0.5 mg, individual values) is 0.85 ng/mL; in [6] (human, plasma, po, 1 mg, Cmax, single dose Day 1, oral tablets, 1.0 mg, individual values) it was 1.71 ng/mL; in [6] (human, plasma, po, 2 mg, Cmax, single dose Day 1, oral tablets, 2.0 mg, mean (CV %) and range), 5.4 to 8.81 ng/mL; in [6] (human, plasma, po, 2.5 mg, Cmax, single dose Day 1, oral tablets, 2.5 mg, mean (CV %) and range) it was 6.7 to 16.2 ng/mL; in data set [6] (human, plasma, po, 3 mg, Cmax, single dose Day 1, oral tablets, 3.0 mg, mean (CV %) and range) it was 2.82 to 22.9 ng/mL; in [6] (human, plasma, po, 4 mg, Cmax, single dose Day 1, oral tablets, 4.0 mg, mean (CV %) and range), 16.3 to 34.2 ng/mL. Further, the maximum concentration (Cmax) in [6] (human, plasma, po, 6 mg, Cmax, Day 1, oral tablets, 6.0 mg loading dose, mean (CV %) and range) is 6.91 to 37.2 ng/mL; in data set [6] (human, plasma, po, 8 mg, Cmax, Day 1, oral tablets, 8.0 mg loading dose, mean (CV %) and range), 4.28 to 32 ng/mL; in data set [6] (human, plasma, po, 10 mg, Cmax, Day 1, oral tablets, 10.0 mg loading dose, mean (CV %) and range) it was 65.1 to 87.8 ng/mL; in data set [6] (setting [11]) it was 1.96 ng/mL. Also, the area under the curve AUC(0-t) (as a rule, the area under the concentration-time curve up to a stated or last time point) in data set [6] (human, plasma, po, 1 mg, single dose Day 1, oral tablets, 1.0 mg, individual values) was 13.5 ng·h/mL; in [6] (human, plasma, po, 2 mg, single dose Day 1, oral tablets, 2.0 mg, mean (CV %) and range) it was 44.2 to 77.4 ng·h/mL; in data set [6] (human, plasma, po, 2.5 mg, single dose Day 1, oral tablets, 2.5 mg, mean (CV %) and range), 47.3 to 95.9 ng·h/mL; in data set [6] (human, plasma, po, 3 mg, single dose Day 1, oral tablets, 3.0 mg, mean (CV %) and range), 27.6 to 188 ng·h/mL; in [6] (human, plasma, po, 4 mg, single dose Day 1, oral tablets, 4.0 mg, mean (CV %) and range), 167 to 275 ng·h/mL; in data set [6] (human, plasma, po, 6 mg, Day 1, oral tablets, 6.0 mg loading dose, mean (CV %) and range), 96.7 to 320 ng·h/mL. Moreover, the AUC(0-t) in data set [6] (human, plasma, po, 8 mg, Day 1, oral tablets, 8.0 mg loading dose, mean (CV %) and range) was 62.9 to 308 ng·h/mL; in data set [6] (human, plasma, po, 10 mg, Day 1, oral tablets, 10.0 mg loading dose, mean (CV %) and range), 773 to 979 ng·h/mL. In addition, the Tmax (commonly the time from dosing to the highest level) in data set [6] (human, plasma, po, 2 mg, single dose Day 1, oral tablets, 2.0 mg) is 1.5 to 2 h; in data set [6] (human, plasma, po, 2.5 mg, single dose Day 1, oral tablets, 2.5 mg), 1 to 2 h; in data set [6] (human, plasma, po, 3 mg, single dose Day 1, oral tablets, 3.0 mg), 0.5 to 3 h; in [6] (human, plasma, po, 6 mg, Day 1, oral tablets, 6.0 mg loading dose) it was 1.05 to 8.08 h; in data set [6] (human, plasma, po, 8 mg, Day 1, oral tablets, 8.0 mg loading dose), 1 to 24 h; in data set [6] (human, plasma, po, 10 mg, Day 1, oral tablets, 10.0 mg loading dose) it was 1 to 2 h. Further, the “AUC (0-24)” value in data set [6] (setting [10]) is 2.13 ng·h/mL and 9.69 ng·h/mL; in data set [6] (setting [11]) it was 12.2 ng·h/mL. Besides, the half-life (in general, how long it takes for the measured level to halve) in the data set “clinical” is roughly 120 h. For the same compound, the “Cmax End of Study” value in [7] (0.3 mg/m2) is listed as 7.24 ng/mL; in data set [7] (0.45 mg/m2), 9.78 ng/mL; in [9] (female) it was 8.03 ng/mL; in data set [9] (male) it was 5.34 ng/mL. In addition, the “AR (Accumulation Ratio)” value in data set [8] (repeat dose Day 15, 0.50 mg) was 28.3 and 10.2; in data set [8] (repeat dose Day 15, 1 mg), 18.1 and 7.8; in [8] (repeat dose Day 15, 4 mg), 2.42 and 3.45. In addition, the “T1/2, eff (Effective Half-Life)” value in data set [8] (repeat dose Day 15, 0.50 mg) is 461 h and 161 h; in data set [8] (repeat dose Day 15, 1 mg), 293 h and 122 h; in [8] (repeat dose Day 15, 4 mg), 48.5 h. Moreover, the “maximum tolerated dose (MTD)” value in data set [9] (Rat, 3 weeks, oral, two doses marked MTD, sex shown by bolding that is lost) is 0.5 mg/m^2/day and 1 mg/m^2/day.

The record behind these values is US9155706B2, “Pharmaceutical composition” (Novartis AG, priority 2010, dated 2015).
